Source: ChEMBL document CHEMBL5137022, “Antitumor Activity of Rutaecarpine in Human Colorectal Cancer Cells by Suppression of Wnt/β-Catenin Signaling” (J Nat Prod, 2022)
Active and inactive are the calls of the source. The calls are words filed in the database; no cut-off is given here.

Experiments:
[1] = tested on: LS174T; test: Induction of cell cycle arrest in human LS174T cells assessed as accumulation of cells at sub-G1 phase at 20 uM measured at 12 hrs by RNase A/propidium iodide staining based flow cytometric analysis (reference value: 0.7 %); assay type: functional
[2] = tested on: Mus musculus; test: Downregulation of MMP-7 expression in tumor of BALB/c mouse xenografted with human LS174T cells at 10 to 30 mg/kg, ip administered 3 times per week for 21 days by Western blot analysis; assay type: functional, organism-based; settings: dose 10-30 mg/kg, time 21.0 day
[3] = tested on: LS174T; test: Downregulation of cyclin D1 expression in human LS174T cells at 2.5 to 20 uM incubated for 24 hrs by Western blot analysis; assay type: functional, cell-based; settings: dose 2.5-20 µM
[4] = tested on: LS174T; test: Antitumor activity against human LS174T cells xenografted in BALB/c nude mouse assessed as reduction in tumor weight at 10 mg/kg, ip administered 3 times per week for 21 days by electronic caliper method; assay type: functional; parameters: scale not given: the % may be the effect or the level left; settings: time 21 day
[5] = tested on: LS174T; test: Induction of cell cycle arrest in human LS174T cells assessed as accumulation of cells at S phase at 20 uM measured after 24 hrs by RNase A/propidium iodide staining based flow cytometric analysis (reference value: 14.5 %); assay type: functional
[6] = tested on: Mus musculus; test: Downregulation of c-myc protein expression in tumor of BALB/c mouse xenografted with human LS174T cells at 10 to 30 mg/kg, ip administered 3 times per week for 21 days by Western blot analysis; assay type: functional, organism-based; settings: dose 10-30 mg/kg, time 21.0 day
[7] = tested on: LS174T; test: Induction of cell cycle arrest in human LS174T cells assessed as downregulation of CDK2 expression measured after 24 hrs by Western blot analysis; assay type: functional, cell-based; settings: dose 5-20 µM, DDE = dose-dependent effect
[8] = tested on: LS174T; test: Induction of cell cycle arrest in human LS174T cells assessed as accumulation of cells at G2/M phase at 10 uM measured after 24 hrs by RNase A/propidium iodide staining based flow cytometric analysis (reference value: 12.2 %); assay type: functional
[9] = tested on: Mus musculus; test: Downregulation of N-cadherin expression in tumor of BALB/c mouse xenografted with human LS174T cells at 10 to 30 mg/kg, ip administered 3 times per week for 21 days by Western blot analysis; assay type: functional, organism-based; settings: dose 10-30 mg/kg, time 21.0 day
[10] = tested on: LS174T; test: Induction of cell cycle arrest in human LS174T cells assessed as accumulation of cells at G0/G1 phase at 20 uM measured at 12 hrs by RNase A/propidium iodide staining based flow cytometric analysis (reference value: 74.8 %); assay type: functional
[11] = tested on: LS174T; test: Downregulation of N-cadherin expression in human LS174T cells at up to 8 uM incubated for 24 hrs by Western blot analysis; assay type: functional, cell-based

SMILES: O=c1c2ccccc2nc2n1CCc1c-2[nH]c2ccccc12 [RUTAECARPINE]
- Activity [1]: 0.5%
- Activity [2]: Active
- Activity [3]: Active
- Activity [4]: 68.3%
- Activity [5]: 4.1%
- Activity [6]: Active
- Activity [7]: Dde
- Activity [8]: 9.6%
- Activity [9]: Active
- Activity [10]: 80.3%
- Activity [11]: Active
